This passage reports Ki results from US6403594B1, “Benzopyran derivatives” (Recordati, S.A. Chemical and Pharmaceutical Company, priority 1999, dated 2002).

Each structure is given as a SMILES string.

The assay concerns the target T1, 5HT1A-serotoninergic receptor (Homo sapiens, UniProt P08908).
T1 sequence (P08908 1-422): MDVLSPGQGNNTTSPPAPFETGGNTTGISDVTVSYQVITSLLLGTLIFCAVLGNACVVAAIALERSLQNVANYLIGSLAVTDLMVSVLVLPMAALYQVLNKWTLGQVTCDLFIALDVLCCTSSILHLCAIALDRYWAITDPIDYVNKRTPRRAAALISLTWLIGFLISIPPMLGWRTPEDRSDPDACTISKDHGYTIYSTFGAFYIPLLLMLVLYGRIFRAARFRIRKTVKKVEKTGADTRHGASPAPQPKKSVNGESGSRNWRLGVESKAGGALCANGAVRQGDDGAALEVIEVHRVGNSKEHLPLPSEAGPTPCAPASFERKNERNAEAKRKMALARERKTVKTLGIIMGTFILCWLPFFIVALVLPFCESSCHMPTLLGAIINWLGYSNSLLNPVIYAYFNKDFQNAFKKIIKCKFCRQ
In words: Radioligand binding, cloned 5-HT1A-serotoninergic receptor in HeLa membranes ([3H]8-OH-DPAT). The arrangement: expressed in transfected cells; host or cells: HeLa. The note with it: cloned human 5-HT1A receptor in HeLa membranes, mean Ki, read-out: Affinity for 5-HT1A receptor, cloned receptors (Ki).

Regarding `COc1ccc(Cl)cc1N1CCN(CCCNC(=O)c2cccc3c(=O)c(C)c(C(N)=O)oc23)CC1` [Example 1, 2-Carbamoyl-8-{3-[4-(5-chloro-2-methoxyphenyl)-1-piperazinyl]-propylcarbamoyl}-3-methyl-4-oxo-4H-1-benzopyran], the Ki came out at 17.2 nM.

In the case of `CCOC(=O)c1oc2c(C(=O)NCCCN3CCN(c4cc(Cl)ccc4OC)CC3)cccc2c(=O)c1C` [Example 4, 2-Ethoxycarbonyl-8-{3-[4-(5-chloro-2-methoxyphenyl)-1-piperazinyl]-propylcarbamoyl}-3-methyl-4-oxo-4H-1-benzopyran], the Ki was found to be 15.2 nM.
